Results: ChEMBL document CHEMBL5247584, “Design, synthesis and evaluation of fused hybrids with acetylcholinesterase inhibiting and Nrf2 activating functions for Alzheimer's disease” (Eur J Med Chem, 2022)
Calls of active or inactive are those of the source.

Experiments:
[1] = system: Mus musculus; test: Cognitive enhancing effect in amyloid beta (1 to 42)-induced ICR mouse model assessed as increase in ACh level at 10 mg/kg […] by ELISA; format: functional, organism-based
[2] = system: PC-12; test: Cytotoxicity against rat PC12 cells assessed as growth inhibition at 5 uM after 24 hrs by MTT assay; format: toxicity, cell-based; conditions: pc-12, 24 h
[3] = system: SH-SY5Y; test: Neuroprotective activity against Abeta1-42-induced human SH-SY5Y cells assessed as restoration of cell viability preinubated for 2 hrs followed by Abeta1-42 induction and measured after 24 hrs by MTT assay; format: functional, cell-based; conditions: time 26.0 hrs
[4] = target: Acetylcholinesterase (Electrophorus electricus, UniProt O42275); test: Inhibition of electric eel AChE using ATC and BTC iodide as substrate preincubated for 5 mins followed by substrate addition and measured after 2 mins by DTNB reagent based assay
Chain of Acetylcholinesterase (Electrophorus electricus, UniProt O42275) (O42275 whole entry): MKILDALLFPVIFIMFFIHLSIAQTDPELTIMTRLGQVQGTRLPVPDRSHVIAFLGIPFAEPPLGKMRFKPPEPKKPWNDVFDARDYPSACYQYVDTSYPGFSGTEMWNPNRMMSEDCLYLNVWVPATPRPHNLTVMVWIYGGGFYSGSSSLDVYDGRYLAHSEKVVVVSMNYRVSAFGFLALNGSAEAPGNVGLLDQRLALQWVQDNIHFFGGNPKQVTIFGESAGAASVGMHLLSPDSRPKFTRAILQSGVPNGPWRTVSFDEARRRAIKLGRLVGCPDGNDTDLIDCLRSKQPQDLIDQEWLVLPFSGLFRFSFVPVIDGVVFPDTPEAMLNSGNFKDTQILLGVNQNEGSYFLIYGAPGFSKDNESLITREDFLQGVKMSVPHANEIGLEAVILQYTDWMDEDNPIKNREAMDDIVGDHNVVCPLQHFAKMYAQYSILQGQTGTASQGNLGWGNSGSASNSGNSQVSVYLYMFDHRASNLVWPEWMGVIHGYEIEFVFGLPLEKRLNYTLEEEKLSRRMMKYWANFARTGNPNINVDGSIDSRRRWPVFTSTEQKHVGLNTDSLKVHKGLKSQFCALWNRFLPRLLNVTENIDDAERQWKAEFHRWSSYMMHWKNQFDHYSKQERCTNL

[5] = system: SH-SY5Y; test: Neuroprotective activity against Abeta1-42-induced human SH-SY5Y cells assessed as inhibition of ROS production preincubated for 24 hrs followed by Abeta1-42 induction and measured after 24 hrs by DCFH-DA staining based fluorescence microscopic anlaysis; format: functional, cell-based; conditions: dose 5.0 µM
[6] = system: Mus musculus; test: Neuroprotective activity against Abeta1-42-induced ICR mouse at 20 mg/kg, po by ELISA analysis; format: functional, organism-based
[7] = system: PC-12; test: Cytoprotective activity against H2O2-induced cell damage in rat PC12 cells assessed as reduction in cell injury measured after 24 hrs by MTT assay relative to control; format: functional, cell-based; conditions: dose 1-20 µM
[8] = target: T1, Nuclear factor erythroid 2-related factor 2 (Rattus norvegicus) (UniProt O54968); test: Activation of Nrf2 pathway in rat PC-12 cells assessed as decrease in Nrf2 accumulation in cytoplasm at 20 uM measured after 1 to 5 hrs by Western blot analysis; format: cell-based; conditions: PC12, time 1-5 hrs
T1 sequence (whole entry): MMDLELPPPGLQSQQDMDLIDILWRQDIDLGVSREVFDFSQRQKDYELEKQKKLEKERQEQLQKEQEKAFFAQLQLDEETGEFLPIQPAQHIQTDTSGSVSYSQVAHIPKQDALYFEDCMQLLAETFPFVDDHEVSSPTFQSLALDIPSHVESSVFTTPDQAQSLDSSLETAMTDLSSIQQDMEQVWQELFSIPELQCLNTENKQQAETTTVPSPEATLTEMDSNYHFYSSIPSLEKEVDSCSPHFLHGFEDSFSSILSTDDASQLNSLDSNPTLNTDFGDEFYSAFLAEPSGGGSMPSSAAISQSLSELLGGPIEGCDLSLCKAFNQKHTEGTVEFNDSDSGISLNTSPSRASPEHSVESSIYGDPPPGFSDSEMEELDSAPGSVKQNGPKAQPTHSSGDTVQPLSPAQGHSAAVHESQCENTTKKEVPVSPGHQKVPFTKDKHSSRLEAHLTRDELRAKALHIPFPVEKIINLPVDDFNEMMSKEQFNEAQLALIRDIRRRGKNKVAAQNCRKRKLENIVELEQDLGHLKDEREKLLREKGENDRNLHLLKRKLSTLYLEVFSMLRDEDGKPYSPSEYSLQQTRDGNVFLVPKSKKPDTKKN

[9] = Hepatotoxicity in […] assessed as effect on AST level; format: toxicity, cell-based
[10] = system: Mus musculus; test: Cognitive enhancing effect in amyloid beta (1 to 42)-induced ICR mouse model assessed as increase in ACh level at 20 mg/kg […] by ELISA; format: functional, organism-based
[11] = target: T1, Nuclear factor erythroid 2-related factor 2 (Rattus norvegicus); test: Induction of Nrf2 nuclear translocation in rat PC12 cells measured for 12 hrs by FITC staining based confocal microscopic analysis; format: cell-based; conditions: filed as activator
[12] = target: T1, Nuclear factor erythroid 2-related factor 2 (Rattus norvegicus); test: Activation of Nrf2 pathway in rat PC-12 cells assessed as increase in NQO1 level at 20 uM measured after 6 hrs by Western blot analysis; format: cell-based; conditions: PC12, filed as activator
[13] = system: BV-2; test: Antiinflammatory activity against LPS-injured mouse BV-2 cells assessed as decrease in IL-6 level at 5 uM by immunofluorescence staining based analysis; format: functional, cell-based
[14] = target: T1, Nuclear factor erythroid 2-related factor 2 (Rattus norvegicus); test: Activation of Nrf2 pathway in rat PC-12 cells assessed as increase in GCLM level at 20 uM measured after 6 hrs by Western blot analysis; format: cell-based; conditions: PC12, filed as activator
[15] = target: T1, Nuclear factor erythroid 2-related factor 2 (Rattus norvegicus); test: Activation of Nrf2 pathway in rat PC-12 cells assessed as fold increase in Nrf2 expression level at 1 to 20 uM measured at 6 hrs by qRT-PCR analysis; format: cell-based; conditions: PC12, filed as activator, dose 1-20 µM
[16] = system: Mus musculus; test: Antialzheimer activity against scopolamine-induced cognitive impairment ICR mouse model assessed as decrease in arrival time at 3 mg/kg, po administered once a day for 10 days and measured after 5 to 10 days by Morris water maze test; format: functional, organism-based; conditions: time 5-10 day
[17] = target: T1, Nuclear factor erythroid 2-related factor 2 (Rattus norvegicus); test: Activation of Nrf2 pathway in rat PC-12 cells assessed as increase in Nrf2 accumulation in nucleus at 20 uM measured after 1 to 5 hrs by Western blot analysis; format: cell-based; conditions: PC12, filed as activator, time 1-5 hrs
[18] = Hepatotoxicity in […] assessed as effect on ALT level; format: toxicity, cell-based
[19] = target: Cholinesterase (Equus caballus, UniProt P81908); test: Inhibition of equine serum BuChE using ATC and BTC iodide as substrate preincubated for 5 mins followed by substrate addition and measured after 2 mins by DTNB reagent based assay
Chain of Cholinesterase (P81908 whole entry): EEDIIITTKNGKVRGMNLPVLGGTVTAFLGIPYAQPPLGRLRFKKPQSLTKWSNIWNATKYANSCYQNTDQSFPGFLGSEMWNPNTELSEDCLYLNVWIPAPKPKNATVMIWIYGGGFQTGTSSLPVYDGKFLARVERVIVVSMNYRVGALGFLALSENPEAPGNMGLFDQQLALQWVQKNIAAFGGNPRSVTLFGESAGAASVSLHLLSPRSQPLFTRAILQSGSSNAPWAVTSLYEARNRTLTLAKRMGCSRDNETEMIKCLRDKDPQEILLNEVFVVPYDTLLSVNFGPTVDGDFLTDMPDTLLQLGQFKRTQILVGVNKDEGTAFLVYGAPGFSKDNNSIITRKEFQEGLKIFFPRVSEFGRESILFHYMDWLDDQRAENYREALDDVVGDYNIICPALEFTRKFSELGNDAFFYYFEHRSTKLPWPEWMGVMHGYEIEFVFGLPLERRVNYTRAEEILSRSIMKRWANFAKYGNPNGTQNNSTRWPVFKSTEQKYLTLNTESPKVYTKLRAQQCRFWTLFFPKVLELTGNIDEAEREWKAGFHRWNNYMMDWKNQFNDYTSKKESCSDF

[20] = system: Mus musculus; test: Antiinflammatory activity Abeta1-42-induced against ICR mouse assessed as increase in TGF-beta1 level at 10 mg/kg, po in presence of presence of donepezil by ELISA analysis; format: functional, organism-based
[21] = system: Mus musculus; test: Antialzheimer activity against scopolamine-induced cognitive impairment ICR mouse model assessed as reduction in escape latency at 3 mg/kg, po administered once a day for 10 days and measured after 5 to 10 days by Morris water maze test; format: functional, organism-based; conditions: time 5-10 day
[22] = target: T1, Nuclear factor erythroid 2-related factor 2 (Rattus norvegicus); test: Activation of Nrf2 pathway in rat PC-12 cells assessed as increase in HO-1 level at 20 uM measured after 6 hrs by Western blot analysis; format: cell-based; conditions: PC12, filed as activator
[23] = target: T1, Nuclear factor erythroid 2-related factor 2 (Rattus norvegicus); test: Activation of Nrf2 pathway in rat PC-12 cells assessed as fold increase in HO-1 expression level at 1 to 20 uM measured at 6 hrs by qRT-PCR analysis; format: cell-based; conditions: PC12, filed as activator, dose 1-20 µM
[24] = system: SH-SY5Y; test: Antiproliferative activity against human SH-SY5Y cells assessed as reduction in cell viability measured for 24 hrs by MTT assay; format: functional, cell-based
[25] = target: T1, Nuclear factor erythroid 2-related factor 2 (Rattus norvegicus); test: Activation of Nrf2 pathway in rat PC-12 cells assessed as fold increase in GCLM level at 20 uM measured at 2 hrs by qRT-PCR analysis; format: cell-based; conditions: PC12, filed as activator
[26] = system: SH-SY5Y; test: Neuroprotective activity against Abeta1-42-induced human SH-SY5Y cells assessed as reduction in cell damage preinubated for 2 hrs followed by Abeta1-42 induction and measured after 24 hrs by MTT assay; format: functional, cell-based; conditions: time 26.0 hrs
[27] = system: Mus musculus; test: Antialzheimer activity against scopolamine-induced cognitive impairment ICR mouse model assessed as distance to reach target at 3 mg/kg, po administered once a day for 10 days and measured after 5 to 10 days by Morris water maze test; format: functional, organism-based; conditions: time 5-10 day
[28] = target: Acetylcholinesterase (Homo sapiens, UniProt P22303); test: Inhibition of human AChE using ATC and BTC iodide as substrate preincubated for 5 mins followed by substrate addition and measured after 2 mins by DTNB reagent based assay
Chain of Acetylcholinesterase (Homo sapiens, UniProt P22303) (P22303 whole entry): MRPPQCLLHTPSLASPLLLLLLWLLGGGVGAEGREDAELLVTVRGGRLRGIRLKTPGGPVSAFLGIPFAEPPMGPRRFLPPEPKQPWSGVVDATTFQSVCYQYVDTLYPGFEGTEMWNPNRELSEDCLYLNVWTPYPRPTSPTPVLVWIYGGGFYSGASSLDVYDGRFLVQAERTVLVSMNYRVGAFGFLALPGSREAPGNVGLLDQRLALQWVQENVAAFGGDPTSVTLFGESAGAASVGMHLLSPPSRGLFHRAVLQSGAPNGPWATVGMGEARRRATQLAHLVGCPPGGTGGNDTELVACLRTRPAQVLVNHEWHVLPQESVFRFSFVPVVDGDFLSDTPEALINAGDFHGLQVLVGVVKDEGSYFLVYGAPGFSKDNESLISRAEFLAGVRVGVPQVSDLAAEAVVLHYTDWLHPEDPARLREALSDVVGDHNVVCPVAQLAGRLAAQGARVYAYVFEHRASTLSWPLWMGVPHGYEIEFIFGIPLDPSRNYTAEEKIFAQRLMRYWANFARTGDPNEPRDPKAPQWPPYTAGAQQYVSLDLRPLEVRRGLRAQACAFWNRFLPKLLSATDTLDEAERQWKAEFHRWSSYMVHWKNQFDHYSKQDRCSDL

[29] = target: T1, Nuclear factor erythroid 2-related factor 2 (Rattus norvegicus); test: Activation of Nrf2 pathway in rat PC-12 cells assessed as fold increase in HO-1 level at 20 uM measured at 2 hrs by qRT-PCR analysis; format: cell-based; conditions: PC12, filed as activator

Cc1ccc(-c2noc(-c3cccc(OCC4CCN(Cc5cccc(F)c5)CC4)c3)n2)cn1
380 nM: IC50 [28]
inactive: Activity [6] | Activity [8] | Activity [10] | Activity [13] | Activity [24]
70 nM: IC50 [4]
8150 nM: IC50 [19]
Non-Toxic: Activity [2] | Activity [9] | Activity [18]
4: fold change (FC) [15] | fold change (FC) [23] | fold change (FC) [29]
8: fold change (FC) [25]
active: Activity [1] | Activity [3] | Activity [5] Dose-Dependent Effect | Activity [7] Dose-Dependent Effect | Activity [11] | Activity [12] | Activity [14] | Activity [16] | Activity [17] | Activity [20] | Activity [21] | Activity [22] | Activity [26] | Activity [27]
